# Source: US20150252022A1, “RETINOIC ACID RECEPTOR-RELATED ORPHAN RECEPTOR MODULATORS AND USES THEREOF” (INNOV17 LLC, priority 2014, published 2015)
# pIC50: −log10 of the molar value.
# Tests used:
# Type in all cases: cell-based
# Conditions in all cases: 72 h; human CD4+ T cells under TH17-polarizing conditions, 3 days, supernatant ELISA
# IL-17A = experiment: Human TH17 Cytokine Inhibition as measured by ELISA (IL-17A)
# Procedure: (§1) Peripheral blood mononuclear cells (PBMCs) were sourced from freshly prepared leukocyte enriched plasma (buffy coat) from healthy donors (New York Blood Center). PBMCs were isolated by density gradient centrifugation using Ficoll-Paque™ PLUS (GE Healthcare). Human CD4+ T cells were seeded into 96-well plates (5×10^4 cells/well) and activated with plate-bound anti-human (h)-CD3 antibody and soluble h-aCD28 (both at 1 ug/ml; eBioscience) and differentiated into TH17 cells with 20 ng/mL h-IL-6, 5 ng/mL h-TGF-β1, 10 ng/mL h-IL-23 (eBioscience) and 10 ng/mL IL-1β (Miltenyi Biotec) in serum-free TexMACS Medium (Miltenyi Biotec) supplemented with 1% Penicillin/Streptomycin (Lonza) for 3 days. CD4+ T cells propagated under TH17-polarizing conditions were cultured in the presence or absence of various concentrations of compounds with a final concentration of 0.1% DMSO. Supernatants were collected and stored at −20° C. until assayed for IL-17A, IL-17F and IL-21 levels by “Ready-Set-Go” ELISA kits (eBioscience) as per manufacturer's instructions. Endpoint absorbance was read at 450 nm using a microplate reader (Perkin Elmer).
# IL-17F = experiment: Human TH17 Cytokine Inhibition as measured by ELISA (IL-17F)
# Procedure: as §1
# IL-21 = experiment: Human TH17 Cytokine Inhibition as measured by ELISA (IL-21)
# Procedure: as §1
Structure (SMILES),pIC50 (IL-17A),pIC50 (IL-17F),pIC50 (IL-21)
"CC(O)CC(=O)N1CCC(CN2CCc3cc(-c4cn[nH]c4)ccc32)CC1 (stereo not drawn) [Example 72, 1-(4-((5-(1H-pyrazol-4-yl)indolin-1-yl)methyl)piperidin-1-yl)-3-hydroxybutan-1-one]",< 5.00,< 5.00,< 5.00
"O=C(CCc1cnccn1)N1CCC(Cn2ccc3cc(-c4cn[nH]c4)ccc32)CC1 [Example 90, 1-(4-((5-(1H-pyrazol-4-yl)-1H-indol-1-yl)methyl)piperidin-1-yl)-3-(pyrazin-2-yl)propan-1-one]",< 5.00,> 5.00,> 5.00
"O=C(CC1CCCCC1)N1CCC(CN2CCCc3cc(-c4cn[nH]c4)ccc32)CC1 [Example 99, 1-(4-((6-(1H-pyrazol-4-yl)-3,4-dihydroquinolin-1(2H)-yl)methyl)piperidin-1-yl)-2-cyclohexylethanone]",> 5.00,> 5.00,< 5.00
"O=C(Cc1ccccc1)N1CCC(CN2CCCc3cc(-c4cn[nH]c4)ccc32)CC1 [Example 102, 1-(4-((6-(1H-pyrazol-4-yl)-3,4-dihydroquinolin-1(2H)-yl)methyl)piperidin-1-yl)-2-phenylethanone]",> 5.00,> 5.00,< 5.00
"O=C(CCCc1ccccc1)N1CCC(CN2CCCc3cc(-c4cn[nH]c4)ccc32)CC1 [Example 103, 1-(4-((6-(1H-pyrazol-4-yl)-3,4-dihydroquinolin-1(2H)-yl)methyl)piperidin-1-yl)-4-phenylbutan-1-one]",> 5.00,> 5.00,< 5.00
"CC1(C)CC(Cn2ccc3cc(-c4cn[nH]c4)ccc32)CN1C(=O)c1ccccc1 (stereo not drawn) [Example 108, (4-((5-(1H-pyrazol-4-yl)-1H-indol-1-yl)methyl)-2,2-dimethylpyrrolidin-1-yl)(phenyl)methanone]",> 5.00,> 5.00,> 5.00
CC1(C)CC(Cn2ccc3cc(-c4cn[nH]c4)ccc32)CN1C(=O)Cc1ccccc1 (stereo not drawn) [Example 109],> 5.00,> 5.00,> 5.00
CC1(C)CC(Cn2ccc3cc(-c4cn[nH]c4)ccc32)CN1C(=O)CCc1ccccc1 (stereo not drawn) [Example 110],> 5.00,> 5.00,> 5.00
CC1(C)CC(Cn2ccc3cc(-c4cn[nH]c4)ccc32)CN1C(=O)CC1CCCCC1 (stereo not drawn) [Example 111],> 5.00,> 5.00,> 5.00
"O=C(CCc1ccccc1)N1CCC(Cn2ccc3cc(-c4c[nH]nn4)ccc32)CC1 [Example 112, 1-(4-((5-(1H-1,2,3-triazol-4-yl)-1H-indol-1-yl)methyl)piperidin-1-yl)-3-phenylpropan-1-one]",> 5.00,> 5.00,> 5.00
"Cn1cc(-c2ccc3c(ccn3CC3CCN(C(=O)CCc4ccccc4)CC3)c2)nn1 [Example 113, 1-(4-((5-(1-methyl-1H-1,2,3-triazol-4-yl)-1H-indol-1-yl)methyl)piperidin-1-yl)-3-phenylpropan-1-one]",> 5.00,> 5.00,> 5.00
"Cc1[nH]ncc1-c1ccc2c(ccn2CC2CCN(C(=O)CCc3ccccc3)CC2)c1 [Example 115, 1-(4-((5-(5-methyl-1H-pyrazol-4-yl)-1H-indol-1-yl)methyl)piperidin-1-yl)-3-phenylpropan-1-one]",> 5.00,> 5.00,> 5.00
"O=C(CCc1ccccc1)N1CCC(Cn2ccc3cc(-c4cn[nH]c4C(F)(F)F)ccc32)CC1 [Example 117, 3-phenyl-1-(4-((5-(5-(trifluoromethyl)-1H-pyrazol-4-yl)-1H-indol-1-yl)methyl)piperidin-1-yl)propan-1-one]",> 5.00,> 5.00,> 5.00

# Next, values leading:
pIC50 (IL-17A),pIC50 (IL-17F),pIC50 (IL-21),Structure (SMILES)
> 5.00,> 5.00,< 5.00,"CC(C)C(=O)N1CCCC(Cn2ccc3cc(-c4cn[nH]c4)ccc32)CC1 (stereo not drawn) [Example 60, 1-(4-((5-(1H-pyrazol-4-yl)-1H-indol-1-yl)methyl)azepan-1-yl)-2-methylpropan-1-one]"
> 5.00,> 5.00,< 5.00,"O=C(OCc1ccccc1)N1CCC(CN2CCc3cc(-c4cn[nH]c4)ccc32)C1 (stereo not drawn) [Example 62, benzyl 3-((5-(1H-pyrazol-4-yl)indolin-1-yl)methyl)pyrrolidine-1-carboxylate]"
> 5.00,> 5.00,> 5.00,"O=C(NCc1ccccc1)N1CCC(CN2CCc3cc(-c4cn[nH]c4)ccc32)C1 (stereo not drawn) [Example 65, 3-((5-(1H-pyrazol-4-yl)indolin-1-yl)methyl)-N-benzylpyrrolidine-1-carboxamide]"
> 5.00,> 5.00,> 5.00,"CC(C)CNC(=O)N1CCC(CN2CCc3cc(-c4cn[nH]c4)ccc32)C1 (stereo not drawn) [Example 67, 3-((5-(1H-pyrazol-4-yl)indolin-1-yl)methyl)-N-isobutylpyrrolidine-1-carboxamide]"
> 5.00,> 5.00,> 5.00,"CC(C)COC(=O)N1CCC(CN2CCc3cc(-c4cn[nH]c4)ccc32)C1 (stereo not drawn) [Example 69, isobutyl 3-((5-(1H-pyrazol-4-yl)indolin-1-yl)methyl)pyrrolidine-1-carboxylate]"
> 5.00,> 5.00,> 5.00,"O=C(OCc1ccccc1)N1CCC(CN2CCc3cc(-c4cn[nH]c4)ccc32)CC1 [Example 70, benzyl 4-((5-(1H-pyrazol-4-yl)indolin-1-yl)methyl)piperidine-1-carboxylate]"
> 5.00,< 5.00,< 5.00,"CC(C)CNC(=O)N1CCC(CN2CCc3cc(-c4cn[nH]c4)ccc32)CC1 [Example 74C, 4-((5-(1H-pyrazol-4-yl)indolin-1-yl)methyl)-N-isobutylpiperidine-1-carboxamide]"
> 5.00,> 5.00,> 5.00,"CC(C)CNC(=O)N1CCC(CN2CCc3cc(-c4cnn(C(=O)NCC(C)C)c4)ccc32)CC1 [Example 74D, N-isobutyl-4-((5-(1-(isobutylcarbamoyl)-1H-pyrazol-4-yl)indolin-1-yl)methyl)piperidine-1-carboxamide]"
> 5.00,> 5.00,> 5.00,"O=C(NCc1ccccc1)N1CCC(CN2CCc3cc(-c4cn[nH]c4)ccc32)CC1 [Example 76, 4-((5-(1H-pyrazol-4-yl)indolin-1-yl)methyl)-N-benzylpiperidine-1-carboxamide]"
> 5.00,> 5.00,> 5.00,"O=C(CCc1ccccc1)N1CCC(Cn2ccc3cc(-c4cn[nH]c4)ccc32)CC1 [Example 79, 1-(4-((5-(1H-pyrazol-4-yl)-1H-indol-1-yl)methyl)piperidin-1-yl)-3-phenylpropan-1-one]"
> 5.00,> 5.00,> 5.00,"O=C(Cc1ccccc1)N1CCC(Cn2ccc3cc(-c4cn[nH]c4)ccc32)CC1 [Example 88, 1-(4-((5-(1H-pyrazol-4-yl)-1H-indol-1-yl)methyl)piperidin-1-yl)-2-phenylethanone]"
> 5.00,> 5.00,> 5.00,"O=C(CCCc1ccccc1)N1CCC(Cn2ccc3cc(-c4cn[nH]c4)ccc32)CC1 [Example 89, 1-(4-((5-(1H-pyrazol-4-yl)-1H-indol-1-yl)methyl)piperidin-1-yl)-4-phenylbutan-1-one]"
> 5.00,> 5.00,> 5.00,"O=C(CCc1ccccn1)N1CCC(Cn2ccc3cc(-c4cn[nH]c4)ccc32)CC1 [Example 91, 1-(4-((5-(1H-pyrazol-4-yl)-1H-indol-1-yl)methyl)piperidin-1-yl)-3-(pyridin-2-yl)propan-1-one]"
> 5.00,> 5.00,> 5.00,"O=C(COc1ccccc1)N1CCC(Cn2ccc3cc(-c4cn[nH]c4)ccc32)CC1 [Example 92, 1-(4-((5-(1H-pyrazol-4-yl)-1H-indol-1-yl)methyl)piperidin-1-yl)-2-phenoxyethanone]"
> 5.00,> 5.00,> 5.00,"O=C(CCc1ccc(F)cc1)N1CCC(Cn2ccc3cc(-c4cn[nH]c4)ccc32)CC1 [Example 93, 1-(4-((5-(1H-pyrazol-4-yl)-1H-indol-1-yl)methyl)piperidin-1-yl)-3-(4-fluorophenyl)propan-1-one]"
> 5.00,> 5.00,> 5.00,"O=C(CCc1cccc(F)c1)N1CCC(Cn2ccc3cc(-c4cn[nH]c4)ccc32)CC1 [Example 94, 1-(4-((5-(1H-pyrazol-4-yl)-1H-indol-1-yl)methyl)piperidin-1-yl)-3-(3-fluorophenyl)propan-1-one]"
> 5.00,> 5.00,> 5.00,"O=C(CCc1ccccc1F)N1CCC(Cn2ccc3cc(-c4cn[nH]c4)ccc32)CC1 [Example 95, 1-(4-((5-(1H-pyrazol-4-yl)-1H-indol-1-yl)methyl)piperidin-1-yl)-3-(2-fluorophenyl)propan-1-one]"
> 5.00,> 5.00,> 5.00,"O=C(CCc1ccccc1)N1CCC(CN2CCCc3cc(-c4cn[nH]c4)ccc32)CC1 [Example 98, 1-(4-((6-(1H-pyrazol-4-yl)-3,4-dihydroquinolin-1(2H)-yl)methyl)piperidin-1-yl)-3-phenylpropan-1-one]"
